# Data taken from patent US10632195B2, “Pharmaceutical device for electric-field assisted administration of Tapentadol and method of administering Tapentadol with same” (Gruenenthal GmbH, priority 2012, dated 2020).
# Where “and” joins values, the source holds several entries; their conditions need not be identical. Equal values may be shown once. Where a name gives a salt, the structure may show the parent alone.
# Test: iontophoretic transdermal delivery of Tapentadol hydrochloride, 24 hours of iontophoresis (example 1b), side-bi-side diffusion cells, constant current 0.25 mA (0.4 mA/cm2), donor 100 mM in water
# Assay type: in vitro ADME, pig
# Details: for drug flux across the skin, Mean ± SD / drug flux across the skin, as tapentadol base, Mean ± SD / cumulative, iontophoretic delivery across the skin, Mean ± SD / cumulative, iontophoretic delivery across the skin, as tapentadol base, Mean ± SD: n=6; for drug flux across the skin, Mean ± SD / drug flux across the skin, as tapentadol base, Mean ± SD / cumulative, iontophoretic delivery across the skin, Mean ± SD / cumulative, iontophoretic delivery across the skin, as tapentadol base, Mean ± SD / drug flux across the skin / cumulative, iontophoretic delivery across the skin: patch area 0.64 cm^2; for drug flux across the skin / cumulative, iontophoretic delivery across the skin: single cells 1-6, hydrochloride; for cumulative, iontophoretic delivery across the skin: listed as Tapentadol HCl
# Procedure: Determination of the rate of iontophoretic transdermal delivery of Tapentadol hydrochloride for a period of 24 hours of iontophoresis
# Tapentadol hydrochloride (batch no. A0012) was employed. The components of the phosphate buffered saline (PBS) and the mobile phase used were from Sigma, UK. The pig skin was obtained from a local farm, washed with water, excess hair was carefully trimmed with scissors, and the skin was dermatomed using a Zimmer dermatome set at a nominal thickness of 750 μm. The skin was then stored at −20° C.
# The drug was delivered from the anode, using side-bi-side (horizontal) glass diffusion cells (n=6) supplied by Permegear, USA. The porcine skin membrane was excised from the dorsal surface.
# Electrodes were prepared in-house and were made of silver/silver chloride. To pass current for 24 hours in this set-up, it was necessary for the donor compartment to contain 76 mM chloride ions.
# The anode was placed in the donor chamber; the donor solution was 3 ml of Tapentadol hydrochloride (100 mM, i.e. 25.78 mg/ml of Tapentadol hydrochloride, 22.13 mg/ml of base) in water. The cathode was placed in the receptor chamber, which contained 3 ml of phosphate-buffered saline, pH 7.4. Both chambers were stirred by magnets.
# Current was applied for a total of 8 or 24 hours, respectively.
# The receptor solution was sampled and assayed at 0.5, 1, 2, 3, 4, 5, 6, 7, 8 (example 1a) and optionally 24 hours (example 1b) post-initiation of the current. During the 8 hour experiment (example 1a), at 0.5, 1, 2, and 3 hours, 1 ml of receptor solution was removed and replaced with fresh PBS. As it was clear that the amount of Tapentadol in the receptor solution was sufficient for quantitation by HPLC, at the subsequent sampling times of 4, 5, 6, 7 and 8 hours, the entire receptor solution (3 ml) was removed and replaced with fresh PBS, to ensure sink conditions in the receptor. During the 24 hour experiment (example 1b), the entire receptor solution (3 ml) was removed and replaced with fresh PBS at every sampling point.
# The concentrations of Tapentadol hydrochloride in the receptor chamber samples were determined by HPLC. A mobile phase consisting of 300:700:1 methanol:water:phosphoric acid was pumped (1 ml/min) through a Acclaim RP-18 (4×150 mm) reverse-phase column (Dionex, UK) at 35° C. Tapentadol concentrations were quantified via their UV absorbance at 215 nm using a calibration curve diluted in PBS at pH 7.4. Injection volume was 20 μl and the retention time for Tapentadol hydrochloride was 12 minutes and the total run time was 16 minutes.
# A Tapentadol-free “blank” diffusion cell (donor was saline only) was also prepared and the receptor solution was analysed after 8 hours to confirm no peaks from any component of the skin co-eluted with the Tapentadol hydrochloride.
# Voltages were as expected for 6 cells in series (range was 6 to 28 volts). The pH of the donor solution was measured after termination of 24 hours of iontophoresis, and ranged from 6.47 to 6.99. The pH of drug in the donor prior to commencing the experiment was 5.07 (5.34 for the 8 hour iontophoresis).
# [1] = 24 hours iontophoresis, as tapentadol hydrochloride
smiles,measurement,setting,value
CC[C@@H](c1cccc(O)c1)[C@@H](C)CN(C)C [Tapentadol hydrochloride],"drug flux across the skin, Mean ± SD","0.5 h, iontophoresis",3 ± 2 µg/h
same,"drug flux across the skin, as tapentadol base, Mean ± SD","0.5 h, iontophoresis",3 ± 2 µg/h
same,"cumulative, iontophoretic delivery across the skin, Mean ± SD",0.5 h,2 ± 1 µg
same,"cumulative, iontophoretic delivery across the skin, as tapentadol base, Mean ± SD",0.5 h,1 ± 1 µg
same,"drug flux across the skin, Mean ± SD","1 h, iontophoresis",48 ± 22 µg/h
same,"drug flux across the skin, as tapentadol base, Mean ± SD","1 h, iontophoresis",41 ± 19 µg/h
same,"cumulative, iontophoretic delivery across the skin, Mean ± SD",1 h,26 ± 12 µg
same,"cumulative, iontophoretic delivery across the skin, as tapentadol base, Mean ± SD",1 h,22 ± 10 µg
same,"drug flux across the skin, Mean ± SD","1.5 h, iontophoresis",96 ± 22 µg/h
same,"drug flux across the skin, as tapentadol base, Mean ± SD","1.5 h, iontophoresis",82 ± 19 µg/h
same,"cumulative, iontophoretic delivery across the skin, Mean ± SD",1.5 h,74 ± 22 µg
same,"cumulative, iontophoretic delivery across the skin, as tapentadol base, Mean ± SD",1.5 h,63 ± 19 µg
same,"drug flux across the skin, Mean ± SD","2 h, iontophoresis",144 ± 38 µg/h
same,"drug flux across the skin, as tapentadol base, Mean ± SD","2 h, iontophoresis",124 ± 33 µg/h
same,"cumulative, iontophoretic delivery across the skin, Mean ± SD",2 h,146 ± 41 µg
same,"cumulative, iontophoretic delivery across the skin, as tapentadol base, Mean ± SD",2 h,125 ± 35 µg
same,"drug flux across the skin, Mean ± SD","3 h, iontophoresis",176 ± 32 µg/h
same,"drug flux across the skin, as tapentadol base, Mean ± SD","3 h, iontophoresis",151 ± 28 µg/h
same,drug flux across the skin,"3 h, iontophoresis",128 µg/h and 147 µg/h and 203 µg/h and 208 µg/h and 181 µg/h and 190 µg/h
same,"cumulative, iontophoretic delivery across the skin, Mean ± SD",3 h,322 ± 72 µg
same,"cumulative, iontophoretic delivery across the skin, as tapentadol base, Mean ± SD",3 h,276 ± 61 µg
same,"cumulative, iontophoretic delivery across the skin",3 h,224 µg and 259 µg and 364 µg and 419 µg and 315 µg and 348 µg
same,"drug flux across the skin, Mean ± SD","4 h, iontophoresis",232 ± 27 µg/h
same,"drug flux across the skin, as tapentadol base, Mean ± SD","4 h, iontophoresis",199 ± 23 µg/h
same,drug flux across the skin,"4 h, iontophoresis",184 µg/h and 217 µg/h and 238 µg/h and 257 µg/h and 248 µg/h
same,"cumulative, iontophoretic delivery across the skin, Mean ± SD",4 h,554 ± 96 µg
same,"cumulative, iontophoretic delivery across the skin, as tapentadol base, Mean ± SD",4 h,475 ± 83 µg
same,"cumulative, iontophoretic delivery across the skin",4 h,408 µg and 476 µg and 602 µg and 676 µg and 563 µg and 596 µg
same,"drug flux across the skin, Mean ± SD","5 h, iontophoresis",270 ± 22 µg/h
same,"drug flux across the skin, as tapentadol base, Mean ± SD","5 h, iontophoresis",232 ± 19 µg/h
same,drug flux across the skin,"5 h, iontophoresis",227 µg/h and 271 µg/h and 283 µg/h and 285 µg/h and 284 µg/h and 272 µg/h
same,"cumulative, iontophoretic delivery across the skin, Mean ± SD",5 h,824 ± 116 µg
same,"cumulative, iontophoretic delivery across the skin, as tapentadol base, Mean ± SD",5 h,707 ± 99 µg
same,"cumulative, iontophoretic delivery across the skin",5 h,635 µg and 747 µg and 885 µg and 962 µg and 847 µg and 867 µg
same,"drug flux across the skin, Mean ± SD","6 h, iontophoresis",277 ± 18 µg/h
same,"drug flux across the skin, as tapentadol base, Mean ± SD","6 h, iontophoresis",238 ± 16 µg/h
same,drug flux across the skin,"6 h, iontophoresis",243 µg/h and 282 µg/h and 298 µg/h and 277 µg/h and 286 µg/h and 274 µg/h
same,"cumulative, iontophoretic delivery across the skin, Mean ± SD",6 h,1101 ± 129 µg
same,"cumulative, iontophoretic delivery across the skin, as tapentadol base, Mean ± SD",6 h,945 ± 111 µg
same,"cumulative, iontophoretic delivery across the skin",6 h,878 µg and 1029 µg and 1183 µg and 1239 µg and 1133 µg and 1142 µg
same,"drug flux across the skin, Mean ± SD","7 h, iontophoresis",282 ± 18 µg/h
same,"drug flux across the skin, as tapentadol base, Mean ± SD","7 h, iontophoresis",242 ± 15 µg/h
same,drug flux across the skin,"7 h, iontophoresis",248 µg/h and 292 µg/h and 282 µg/h and 295 µg/h
same,"cumulative, iontophoretic delivery across the skin, Mean ± SD",7 h,1382 ± 144 µg
same,"cumulative, iontophoretic delivery across the skin, as tapentadol base, Mean ± SD",7 h,1187 ± 123 µg
same,"cumulative, iontophoretic delivery across the skin",7 h,1125 µg and 1322 µg and 1465 µg and 1534 µg and 1425 µg and 1424 µg
same,"drug flux across the skin, Mean ± SD","8 h, iontophoresis",288 ± 30 µg/h
same,"drug flux across the skin, as tapentadol base, Mean ± SD","8 h, iontophoresis",247 ± 26 µg/h
same,drug flux across the skin,"8 h, iontophoresis",254 µg/h and 331 µg/h and 256 µg/h and 302 µg/h and 282 µg/h
same,"cumulative, iontophoretic delivery across the skin, Mean ± SD",8 h,1671 ± 155 µg
same,"cumulative, iontophoretic delivery across the skin, as tapentadol base, Mean ± SD",8 h,1434 ± 133 µg
same,"cumulative, iontophoretic delivery across the skin",8 h,1380 µg and 1653 µg and 1721 µg and 1836 µg and 1727 µg and 1706 µg
same,"drug flux across the skin, Mean ± SD","24 h, iontophoresis",309 ± 26 µg/h
same,"drug flux across the skin, as tapentadol base, Mean ± SD","24 h, iontophoresis",265 ± 23 µg/h
same,drug flux across the skin,"24 h, iontophoresis",300 µg/h and 342 µg/h and 330 µg/h and 323 µg/h and 282 µg/h and 277 µg/h
same,"cumulative, iontophoretic delivery across the skin, Mean ± SD",24 h,6616 ± 468 µg
same,"cumulative, iontophoretic delivery across the skin, as tapentadol base, Mean ± SD",24 h,5680 ± 402 µg
same,"cumulative, iontophoretic delivery across the skin",24 h,6185 µg and 7120 µg and 7001 µg and 7000 µg and 6247 µg and 6145 µg
same,"cumulative amount delivered across a 0.64 cm2 area of skin, as tapentadol base",24 hours iontophoresis,5.7 mg
same,"cumulative amount delivered per 1 cm2, as tapentadol base",24 hours iontophoresis,8.9 mg
same,cumulative amount delivered across a 0.64 cm2 area of skin,[1],6.6 mg
same,cumulative amount delivered per 1 cm2,[1],10.3 mg
same,time by which steady-state flux appears to have been reached,"example 1b, iontophoresis",5 to 6 h
same,difference between flux during iontophoresis and flux due to passive diffusion,iontophoresis vs comparative example 1b,30 fold
